Active and inactive are the calls of the source. The calls are words filed in the database; no cut-off is given here.
Legend:
A549 [1] = assay: Cytotoxicity against human A549 cells assessed as cell viability incubated for 48 hrs by MTT assay; type: functional, cell-based; conditions: A549, 48 h
NCI-H1299 [2] = assay: Cytotoxicity against human NCI-H1299 cells assessed as cell viability incubated for 48 hrs by MTT assay; type: functional, cell-based; conditions: NCI-H1299, 48 h
NSCLC = assay: Downregulation of TrxR1 expression in human NSCLC cells; type: functional, cell-based
A549 [3] = assay: Induction of intracellular ROS generation in human A549 cells upto 10 uM by DCFH-DA probe based fluorescence assay; type: functional, cell-based
Mitochondrial membrane = assay: Induction of mitochondrial membrane potential loss in human A549 cells assessed as increase in green fluorescence upto 10 uM incubated for 24 hrs by JC-1 staining based confocal microscopy analysis; type: cell membranes
A549 [4] = assay: Induction of morphological changes in human A549 cells assessed as decrease in cell density upto 10 uM by AO/EB staining based analysis; type: functional
NCI-H1299 [5] = assay: Induction of apoptosis in human NCI-H1299 cells assessed as increase in green fluorescence intensity upto 10 uM by AO/EB staining based fluorescence microscopic analysis; type: functional, cell-based
A549 [6] = assay: Induction of apoptosis in human A549 cells assessed as chromatin condensation upto 10 uM by Hoechst 33258 staining based fluorescence microscopic analysis; type: functional, cell-based
A549 [7] = assay: Induction of apoptosis in human A549 cells assessed as early apoptotic cells at 2.5 uM measured after 48 hrs by Annexin V/FITC staining based flow cytometric analysis (reference value: 1.31 %); type: functional
A549 [8] = assay: Induction of apoptosis in human A549 cells assessed as late apoptotic cells at 2.5 uM measured after 48 hrs by Annexin V/FITC staining based flow cytometric analysis (reference value: 5.37%); type: functional
A549 [9] = assay: Induction of apoptosis in human A549 cells assessed as necrotic cells at 2.5 uM measured after 48 hrs by Annexin V/FITC staining based flow cytometric analysis (reference value: 2.52 %); type: functional
A549 [10] = assay: Induction of apoptosis in human A549 cells assessed as early apoptotic cells at 10 uM measured after 48 hrs by Annexin V/FITC staining based flow cytometric analysis (reference value: 1.31 %); type: functional
NCI-H1299 [11] = assay: Induction of apoptosis in human NCI-H1299 cells assessed as viable cells at 2.5 uM measured after 48 hrs by Annexin V/FITC staining based flow cytometric analysis (reference value: 96.3%); type: functional; conditions: read-out: Activity
NCI-H1299 [12] = assay: Induction of apoptosis in human NCI-H1299 cells assessed as early apoptotic cells at 2.5 uM measured after 48 hrs by Annexin V/FITC staining based flow cytometric analysis (reference value: 1.14 %); type: functional
NCI-H1299 [13] = assay: Induction of apoptosis in human NCI-H1299 cells assessed as late apoptotic cells at 2.5 uM measured after 48 hrs by Annexin V/FITC staining based flow cytometric analysis (reference value: 1.96%); type: functional
NCI-H1299 [14] = assay: Induction of apoptosis in human NCI-H1299 cells assessed as early apoptotic cells at 5 uM measured after 48 hrs by Annexin V/FITC staining based flow cytometric analysis (reference value: 1.14 %); type: functional
NCI-H1299 [15] = assay: Induction of apoptosis in human NCI-H1299 cells assessed as late apoptotic cells at 5 uM measured after 48 hrs by Annexin V/FITC staining based flow cytometric analysis (reference value: 1.96%); type: functional
NCI-H1299 [16] = assay: Induction of apoptosis in human NCI-H1299 cells assessed as necrotic cells at 5 uM measured after 48 hrs by Annexin V/FITC staining based flow cytometric analysis (reference value: 0.62%); type: functional
NCI-H1299 [17] = assay: Induction of apoptosis in human NCI-H1299 cells assessed as viable cells at 10 uM measured after 48 hrs by Annexin V/FITC staining based flow cytometric analysis (reference value: 96.3%); type: functional; conditions: read-out: Activity
A549 [18] = assay: Induction of apoptosis in human A549 cells assessed as decrease in BCl-2 expression at upto 10 uM incubated for 24 hrs by Western blot analysis; type: functional, cell-based
A549 [19] = assay: Induction of ferroptosis in human A549 cells assessed as cell death by MTT assay; type: functional, cell-based
NCI-H1299 [20] = assay: Induction of ferroptosis in human NCI-H1299 cells assessed as cell death by MTT assay; type: functional, cell-based
A549 [21] = assay: Induction of ferroptosis in human A549 cells assessed as increase in intracellular LPO accumulation at 5 uM incubated for 24 hrs by flow cytometry analysis; type: functional, cell-based
A549 [22] = assay: Induction of ferroptosis in human A549 cells assessed as effect on SLC7A11 protein expression at 10 uM incubated for 24 hrs by Western blotting analysis; type: functional, cell-based
NCI-H1299 [23] = assay: Induction of ferroptosis in human NCI-H1299 cells assessed as effect on SLC7A11 protein expression at 10 uM incubated for 24 hrs by Western blotting analysis; type: functional, cell-based
A549 [24] = assay: Induction of ferroptosis in human A549 cells assessed as effect on GPX4 protein expression at 10 uM incubated for 24 hrs by Western blotting analysis; type: functional, cell-based
NCI-H1299 [25] = assay: Antitumor activity against human NCI-H1299 cells xenografted in BALB/c mouse assessed as reduction in tumor volume at 5 to 10 mg/kg, po administered every 2 days for 2 weeks; type: functional, organism-based; conditions: dose 5-10 mg/kg
[26] = Toxicity in BALB/c mouse assessed as liver damage at 5 to 10 mg/kg, po administered every 2 days for 2 weeks by H and E staining based analysis; type: organism-based; conditions: in vivo, 336 h, dose 5-10 mg/kg
[27] = Toxicity in BALB/c mouse assessed as kidney damage at 5 to 10 mg/kg, po administered every 2 days for 2 weeks by H and E staining based analysis; type: organism-based; conditions: in vivo, 336 h, dose 5-10 mg/kg
NCI-H1299 [28] = assay: Antitumor activity against human NCI-H1299 cells xenografted in BALB/c mouse assessed as decrease in Ki-67 expression at 5 to 10 mg/kg, po administered every 2 days for 2 weeks by IHC analysis; type: functional, organism-based; conditions: dose 5-10 mg/kg
[29] = Cmax in male Sprague-Dawley rat at 10 mg/kg, iv measured upto 24 hrs by LC-MS/MS analysis; type: ADME, organism-based; conditions: in vivo
[30] = MRT (0 to t) in male Sprague-Dawley rat at 10 mg/kg, iv measured upto 24 hrs by LC-MS/MS analysis; type: ADME, organism-based; conditions: in vivo

CCCNC(=O)O[C@@H]1/C=C(\C)C[C@H]2C=C(C[C@@H]3OC(=O)[C@H](CSC(=S)N(C)C)[C@H]31)C(=O)O2
IC50 (A549 [1]): 1.74 µM | IC50 (NCI-H1299 [2]): 4.68 µM | Activity (NSCLC): Active | Activity (A549 [3]): Active | Activity (Mitochondrial membrane): Active | Activity (A549 [4]): Active | Activity (NCI-H1299 [5]): Active | Activity (A549 [6]): Active | Activity (A549 [7]): 1.56% | Activity (A549 [8]): 6.69% | Activity (A549 [9]): 4.09% | Activity (A549 [10]): 3.68% | viability at 2.5 µM (NCI-H1299 [11]): 89.7% | Activity (NCI-H1299 [12]): 1.67% | Activity (NCI-H1299 [13]): 7.41% | Activity (NCI-H1299 [14]): 10.2% | Activity (NCI-H1299 [15]): 15.6% | Activity (NCI-H1299 [16]): 1.45% | viability at 10 µM (NCI-H1299 [17]): 68.6% | Activity (A549 [18]): Active | Activity (A549 [19]): Active | Activity (NCI-H1299 [20]): Active | Activity (A549 [21]): Active | Activity (A549 [22]): Active | Activity (NCI-H1299 [23]): Active | Activity (A549 [24]): Active | Activity (NCI-H1299 [25]): Active | Activity [26]: Non-toxic | Activity [27]: Non-toxic | Activity (NCI-H1299 [28]): Active | Cmax [29]: 2310 ng/mL | MRT last at 24 h [30]: 4.15 h
